In brackets after ≈: the same amount, converted by molar mass.

Data on two compounds can be found in patent publication US20090247495A1, “CU[…] AND USES THEREOF” (priority 2007, published 2009).

The subject of one experiment is MAPK signaling pathway. Kind of experiment: Western blot of MAPK / cell cycle signaling proteins in HL60 cells. Type of experiment: cell-based, human. The method, then: (§1) Control cells, as well as cells treated with cucurbitacin B or cucurbitacin D, were harvested and collected by centrifugation. Whole cell extracts were then prepared by lysing the cells using 4% sodium dodecyl sulfate (SDS) gel sample buffer. Cell extracts were boiled for 10 min and chilled on ice, subjected to 12% SDS-polyacrylamide gel electrophoresis, and transferred to a PVDF membrane. Each membrane was cut into to two pieces with one piece incubated at 4° C. overnight with antibodies against cell cycle signaling proteins, such as ERK, phosphorlated-ERK, p38, phosphorlated-p38, Cyclin E, Retinoblastoma, phosphalated-Retinoblastoma and c-myc, and apoptotic protein (PARP). β-actin was used as a control for protein loading. All antibodies were obtained from Cell signaling Technologies (USA). Then membranes were incubated at 37° C. for 1 h with secondary antibody conjugated with peroxidase, and the signal was detected using chemiluminescence detection reagent. The relative protein level was calculated as the ratio of the optical density of the protein of interest to that of β-actin.
(Immunoblotting shows a protein as a band on a membrane.)

The subject of the next experiment is PARP. Kind of experiment: Western blot of PARP cleavage in HL60 cells. Type of experiment: cell-based, human. The method, then:
as §1

Experiment [1] concerns Human cancer cell lines from the 59-NCI Cancer Cell Line Panel. Type of experiment: cell-based.
A further experiment concerns Stat3. Nature of the experiment: Western blot of Stat3 activation in HepG2, HT29 and MCF-7 cells. In kind it is cell-based, human.
A further experiment relates to hsp27. Nature of the experiment: Western blot of hsp27 in HepG2, HT29 and MCF-7 cells. In kind it is cell-based, human. The procedure: (§2) The human cancer cells line were serum starved for 18 hours prior to CuB/CuD treatment. Cells were incubated in a 6-well plate filled with 5 ml growth medium (RPMI with 0.2% FBS and 1% PS) at the cell density of 1×10^5 cells/ml, in the presence or absence of two different dosages of CuB/CuD for various time intervals. The drug treatment was terminated by centrifugation at 1,500 rpm for 5 minutes and the cells were rinsed twice with phosphate-buffered saline and lysed at 4° C. in a lysis buffer containing 50 mM Tris-HCl, pH7.5, 100 mM NaCl, 5 mM EDTA, 40 mM NaP2O7, 1% Triton X-100, 1 mM dithiothreitol, 200 μM Na3VO4, 100 uM phenylmethysufonyl fluoride, 2 μg/ml leupeptin, 4 μg/ml aprotinin and 0.7 μg/ml pepstatin. The insoluble protein lysate were removed by centrifugation for 10 minutes at 13,000 rpm. Fifteen micrograms of protein lysate was resolved using 10% SDS-polyacryamide gel electrophoresis (PAGE) and then subjected to western blot anaylsis. Western blots were performed with anti-Stat3, anti-Erk1/2 and anti-hsp27 antibodies specific for phosphor- and total Stat3, Erk and hsp27 proteins. The protein bands were then visualized with the Enhanced Chemiluminescence Plus (ECL Plus) detection system (Amersham). • 6.2.8.1 Inhibition Effect Cucurbitacin B/Cucurbitacin D on Stat3 Activation in HepG2 and HT29 Cells
(§3) Cells were incubated either with CuB or CuD (25 ug/ml or the dosage of IC50) for various time intervals (5, 10 or 30 mins, 1 or 4 hours). The Stat3 activation was detected by western blot.

Another experiment deals with Erk1/2. Kind of experiment: Western blot of Erk1/2 in HepG2, HT29 and MCF-7 cells. Type of experiment: cell-based, human. The procedure: as §2, §3
In experiment [2] the test system is colon cancer cell line (HT29). Nature of the experiment: MTT cell cytotoxicity assay, HT29. Type of experiment: cell-based, human. Particulars: 48 hours. The method, then:
Three human cancer cell lines (HepG2(liver), HT29(colon) and MCF-7(breast)) were purchased from American Type Culture Collection (ATCC, Manassas, Va., USA). The cells were cultured in RPMI 1640 medium supplemented with 5% (v/v) fetal bovine serum (FBS) and 100 units/ml penicillin and streptomycin (Invitrogen Life Technologies) in a humidified 5% CO2 atmosphere at 37° C.
The cytotoxic effect of CuB and CuD on these three cancer cell lines were determined using MTT (3-[4,5-dimethylthiazol-2-yl]-2,5-diphenyl tetrazolium bromide) labeled cell cytotoxicity assay. A total of 1×10^4 cells were seeded into a 96-well plate for 24 hours prior to cucurbitacin B (CuB) or cucurbitacin D (CuD) treatment. They were then treated with different dosages of CuB/CuD for 48 hours. After the treatment, 20 μl of MTT (5 mg/ml) was added to each well and incubated for 4 hrs. Then the medium was discarded and 100 μl of dimethyl sulfoxide was added. The absorbance at 570 nm was then measured by using FLUOstar OPTIMA equipment (BMG, LABTECH GmbH, Germany). The percentage of inhibition against different dosages of CuB/CuD were plotted using the Prism software and the 50% inhibition concentration (IC50) were obtained.
For orientation: Formazan colour is commonly taken as a measure of viable cells.

Another experiment concerns melanoma. Nature of the experiment: SRB growth inhibition, melanoma lines of the NCI panel. Type of experiment: cell-based, human. Particulars: 48 hours. An excerpt:
Human cancer cell lines from the 59-NCI Cancer Cell Line Panel including leukemia, melanoma and cancers of breast, brain, colon, lung, ovary, prostate and kidney, were purchased from the National Institute of Cancer (USA). The growth inhibition (GI50) of these cell lines treated with cucurbitacin B and cucurbitacin D in various concentrations was investigated.
59 human cancer cell lines were maintained in RPMI 1640 (Invitrogen Life Technologies, CA, USA) supplemented with 5% Fetal Bovine Serum, 2 mM L-glutamine and 1% Penicillin/Streptomycin (Invitrogen Life Technologies) at 37° C. with 5% CO2. All chemicals were purchased from Sigma (St. Louis, Mo., USA) unless specified otherwise.
Sulforhodamine B (SRB) assay was applied to determine the cytostatic effect of cucurbitacin B and cucurbitacin D. SRB is a dye that binds to cellular proteins and will be dissolved in base. The biomass of total protein can be measured at 520 nm using a plate reader.
Cells were inoculated into 96-well microtiter plates including “Time zero” (Tz) plates in 100 μl at cell concentrations from 5000 to 40,000 cells per well according to NCI guideline. The cells were incubated at 37° C. with 5% CO2 for 24 hours. […] Bound SRB was solubilized with 100-200 ul per well of 10 mM trizma base and absorbance was measured at a wavelength of 520 nm. The percentage of growth inhibition was calculated as follows: […]

Experiment [3] relates to Human cancer cell lines from the 59-NCI Cancer Cell Line Panel. Nature of the experiment: Apoptosis (Annexin V-FITC / PI) by flow cytometry, 18 selected NCI panel cell lines. In kind it is cell-based. Particulars: 48 hours; GI50, ½ GI50 and ¼ GI50. The procedure: Apoptosis is the important mechanism for cell death in normal cells. In cancer cells, this mechanism fails and cells proliferate without control. Human cancer cell lines from the 59-NCI Cancer Cell Line Panel including leukemia, melanoma and cancers of breast, brain, colon, lung, ovary, prostate and kidney were purchased from the National Institute of Cancer. […] They were treated with cucurbitacin B and cucurbitacin D at three different concentrations to elucidate their ability to induce any changes in cell cycle.
Cancer cell lines were maintained in RPMI 1640 supplemented with 5% Fetal Bovine Serum, 2 mM L-glutamine and 1% Penicillin/Streptomycin at 37° C. with 5% CO2. Cells were inoculated into tissue culture flask at cell concentrations from 50000 to 400,000 cells/ml according to the NCI guideline. The cells were incubated at 37° C. with 5% CO2 for 24 hours. Cucurbitacin B and cucurbitacin D were added to the cells of final concentrations ranging from 6 to 350 nM (GI50, ½ GI50 and ¼ GI50 of particular cell line) for 48 hours at 37° C. with 5% CO2. Cells (3×10^5) were then harvested and stained with 5 μl Annexin V-FITC and 10 μl propidium iodine (Becton Dickinson, CA, USA) for 15 minutes at room temperature. Ten thousands events were collected by the FACScaliber and the percentage of different cell populations were analyzed by the CellQuest™ software (Becton Dickinson).
On the technique in general: A flow cytometer gives signals particle by particle.

Experiment [4] deals with Human liver cancer cell lines HepG2. Nature of the experiment: MTT cytotoxicity assay, matrix combination of CuB and Sb on liver cancer cells. In kind it is cell-based. Particulars: HepG2, 2 days, CuB 0 μM. The method, then: Human liver cancer cell lines HepG2 was purchased from American Type Culture Collection (ATCC, Manassas, Va., USA). The cells were cultured in RPMI 1640 medium supplemented with 5% (v/v) fetal bovine serum (FBS) and 100 units/ml penicillin and streptomycin (Invitrogen Life Technologies) in a humidified 5% CO2 atmosphere at 37° C.
A total of 1×10^4 cells were seeded into a 96-well plate for 24 hours prior to drug treatment. They were then treated with different dosages (a multiple of 20-fold of IC50 values) of CuB or Sb for 48 hours. After the treatment, 20 μl of MTT (5 mg/ml) was added to each well and incubated for 4 hrs. Then the medium was discarded and 100 μl of dimethyl sulfoxide was added. The absorbance at 570 nm was then measured by using FLUOstar OPTIMA equipment (BMG, LABTECH GmbH, Germany). The percentage of inhibition against different dosages of CuB or Sb were plotted using the Prism software and the 50% inhibition concentration (IC50) were obtained.
The cells were then treated for 2 days and the % inhibition of growth is determined.
The excess over Bliss additivism may be calculated using the following formula and shown in Table 4: • Bliss Additivism: Combined response=CuB+Sb−(CuB)(Sb) where each effect is expressed as fractional inhibition between 0 and 1 • Excess over additivism=observed response−combined response

On to `CC(C)(O)/C=C/C(=O)[C@](C)(O)[C@H]1[C@H](O)C[C@@]2(C)[C@@H]3CC=C4[C@@H](C[C@H](O)C(=O)C4(C)C)[C@]3(C)C(=O)C[C@]12C` [cucurbitacin D], for which the “regulation of ERK, cyclin E, retinoblastoma phosphorylation and c-myc” value with MAPK signaling pathway was “ERK activation, followed by cyclin E down-regulation, inhibition of retinoblastoma's phosphorylation, and ultimately down-regulation of c-myc”. Moreover, in the experiment with PARP, the “apoptosis marker PARP” value was “cleavage of PARP”. For the same compound, the “cell lines with G2/M arrest” value in experiment [1] is reported as 9 out of 18. Besides, in experiment [1] (SF-295, 48 hours), the cell cycle effect result was “G2/M arrest and endoreduplication”. The Stat3 activation entry in the experiment with Stat3 (HepG2 cells and HT29 cells, 25 ug/ml, 30 minutes) is reported as “inhibited significantly”; in the experiment with Stat3 (MCF-7 cells), “no significant change”. For the same compound, the Hsp27 activation result is “significant up-regulation” with hsp27 (HT29, 10 minutes); “significant up-regulation” with hsp27 (HepG2, 30 minutes); “significant up-regulation” with hsp27 (MCF-7, 4 hours). The “expression of Erk1/2” value with Erk1/2 (HT29, 5 minutes of treatment) was “up-regulated the expression of Erk1/2 significantly”; in the experiment on Erk1/2 (HepG2, 30 minutes of treatment), “up-regulated the expression of Erk1/2 significantly”. In the experiment on Erk1/2 (MCF-7 cells, 5 minutes), the Erk activation entry is recorded as “significant Erk activation”. Also, in [2], the IC50 worked out at 0.27 µg/mL (≈ 0.523 µM). The compound also returned a GI50 in the experiment with melanoma of 60 nM. In experiment [3], the “cell lines in which apoptosis was induced” value is listed as 11 out of 18.

With `CNC(=O)c1cc(Oc2ccc(NC(=O)Nc3ccc(Cl)c(C(F)(F)F)c3)cc2)ccn1` [sorafenib, reference compound], the “% inhibition” value in [4] (Sb 0.1 μM) was 4.61%; in [4] (Sb 0.3 μM), 27.69%; in [4] (Sb 0.9 μM), 39.10%; in [4] (Sb 2.7 μM), 35.35%; in experiment [4] (Sb 8.4 μM), 82.28%. The “Excess over Highest Single Agent Model” value in experiment [4] (Sb 0.1 μM), in experiment [4] (Sb 0.3 μM), in experiment [4] (Sb 0.9 μM), in [4] (Sb 2.7 μM) and in [4] (Sb 8.4 μM) was 0 in each case.

What is called IC50 is the point on the concentration scale where inhibition reaches its midpoint. A higher IC50 goes with lower potency. In general, GI50 refers to the concentration at which growth is held to half of that of the control. By % inhibition is commonly meant the change of the read-out against control, counted positive when it falls.
